Measurements from patent publication US7629156B2, “Ethanol production in fermentation of mixed sugars containing xylose” (E.I. du Pont de Nemours and Company, priority 2006, dated 2009).

Experiments:
Type in all cases: cell-based, Zymomonas mobilis
[1] = system: ZW658 strain; assay: 1-liter fermentor, ZW658 on glucose and xylose in the presence of sorbitol and acetate; details: 5.8 g/L acetate, 10 mM sorbitol
Procedure: (§1) Approximately 1 ml of well mixed sample was obtained from flask or fermentor. First the sample absorbance was measured directly with a spectrophotometer (Amersham Biosciences Ultrospec 3300pro, GE Healthcare, Piscataway, N.J., USA). If the reading was lower than 0.6 unit, no dilution was needed. If the reading was higher than 0.6 unit, the sample was diluted with culture medium until the actual reading was in the range of 0.1 to 0.6 unit. The original OD was calculated from the dilution ratio and the actual reading.
(§2) The analysis of sugars, acetate, ethanol, and other by-products was done with an Agilent 1100 series HPLC and Agilent ChemStation software for LC 3D. The column was BioRad Aminex HPX-87H(HPLC Organic Analysis Column 125-0140) with BioRad Micro-Guard Cartridge Cation-H (125-0129). The operating conditions were:
(§3) Glycerol stock of seed frozen at −80° C. was thawed, then inoculated into sterile culture tubes with mixture of 60 g/L glucose, 20 g/L xylose, 10 g/L yeast extract (YE), 10 g/L KH2PO4, 2 g/L (NH4)2SO4, and 1 g/L MgSO4. Initial pH was adjusted to 5.5 with 4 N KOH. This revival culture was grown statically overnight at 37° C. It was transferred into shake flasks with 75 g/L glucose, 25 g/L xylose, 10 g/L yeast extract (YE), 10 g/L KH2PO4, 2 g/L (NH4)2SO4, and 1 g/L MgSO4. Initial pH was adjusted to 5.5 with 4 N KOH. Growth was monitored by measuring OD600. When the OD reached approximately 5, a certain volume of the seed was withdrawn into a sterile syringe for inoculation.
In a sterilized 1-liter fermentor (BIOSTAT® B-DCU system, Sartorius BBI System Inc., Bethlehem, Pa., USA), 50 ml of ZW658 strain seed culture at OD600 of approximately 5 was inoculated into 450 ml of aqueous solution containing sugars and medium. The final mixed broth contained 99.0 g/L glucose, 82.7 g/L xylose, 5.8 g/L acetate (in the form of potassium acetate), 10 g/L yeast extract (YE), 2 g/L KH2PO4, and 10 mM sorbitol. pH was adjusted to 5.5 with 4 N KOH solution. Mixing speed was set at 150 rpm. Fermentation was conducted at 33° C. and pH 5.5. Samples were taken periodically. Samples were filtered through 0.22 micron filters, and the filtrates were analyzed by HPLC as described in General Methods for compounds including glucose, xylose, ethanol, and acetate. Samples were also diluted with medium (as described in General Methods) and the OD600 was measured to monitor cell growth.

[2] = system: ZW658 strain; assay: Flask fermentation of ZW658 on glucose and xylose with acetate and various polyols; details: 10 mM polyol, 3 g/L acetate
Procedure: as §1, §2, §3
In five sterilized 125 ml Erlenmeyer culture flasks (Cat. No. 30180-036, VWR International, USA), 10 ml of ZW658 strain seed culture at OD600 of approximately 5 was inoculated into each flask with 100 ml of aqueous solution containing 100 g/L glucose, 80 g/L xylose, 3 g/L acetate, 10 g/L yeast extract (YE), 2 g/L KH2PO4, 1 g/L MgSO4.7H2O, and 4 g/L KHCO3, and 10 mM of the following polyols: erythritol, sorbitol, mannitol, maltitol, or lactitol; or 5 mM sorbitol plus 5 mM maltitol, or 5 mM sorbitol plus 5 mM lactitol. After inoculation, the total sugar concentration was about 160 g/L due to dilution by the seed culture. Initial pH was adjusted to 5.5 with 4 N H3PO4 solution. Mixing speed was set at 150 rpm. Fermentation was conducted at 33° C. and pH was not controlled. Samples were taken periodically. Samples were filtered through 0.22 micron filters, and the filtrates were analyzed by HPLC as described in General Methods for compounds including glucose, xylose, ethanol, and acetate. Samples were diluted with medium (as described in General Methods) and the OD600 was measured to monitor cell growth.

[3] = system: ZW658 strain; assay: Flask fermentation of ZW658 on glucose and xylose with sorbitol 10-200 mM
Procedure: as §1, §2, §3
In five sterilized 125 ml Erlenmeyer culture flasks (Cat. No. 30180-036, VWR International, USA), 10 ml of ZW658 strain seed culture at Optical Density of approximately 5 (measured at 600 nm; OD600) was inoculated into each flask with 100 ml of aqueous solution containing 110 g/L glucose, 90 g/L xylose, 10 g/L yeast extract (YE), 2 g/L KH2PO4, 4 g/L KHCO3, and various concentrations of sorbitol (10, 20, 50, 100, and 200 mM). Initial pH was adjusted to 5.5 with 4 NH3PO4 solution. Mixing speed was set at 150 rpm. Fermentation was conducted at 33° C. and pH was not controlled. Samples were taken periodically. Samples were filtered through 0.22 micron filters, and the filtrates were analyzed by HPLC as described in General Methods for ethanol. Samples were diluted with medium (as described in General Methods) and the OD600 was measured to monitor cell growth. […] After 24 hours, the OD600 were 7.74, 7.86, 8.04, 7.82, and 7.12, respectively, for sorbitol concentrations of 10, 20, 50, 100, and 200 mM. After 48 hours, the OD600 were 8.30, 8.26, 8.84, 8.12, and 7.72, respectively, for sorbitol concentrations of 10, 20, 50, 100, and 200 mM. […] Ethanol production was slightly slower with 100 or 200 mM sorbitol than with 10, 20, or 50 mM sorbitol, although all cultures reached about the same final amount of ethanol produced. […] Thus 10 mM sorbitol is adequate to provide maximal ethanol production under these conditions.

How did the “by product xylitol concentration” value ([1]; after 63.75 hours (stationary phase)) turn out when `OC[C@@H](O)[C@@H](O)[C@H](O)[C@@H](O)CO` [sorbitol] was run?
The value was 3.55 g/L.

And the “OD600 cells grew to” value ([1]; after 63.75 hours)?
The value was 6.4.

What about the ethanol concentration ([1]; after 63.75 hours) of the same compound?
Its ethanol concentration is 70.0 g/L.

And the xylose concentration ([1]; after 63.75 hours)?
Its xylose concentration is 29.6 g/L.

And the glucose concentration ([1]; after 63.75 hours, 99.0 g/L glucose, 82.7 g/L xylose, 33° C., pH 5.5)?
Its glucose concentration is 0 g/L.

What about the ethanol production [2] of the same compound?
Its ethanol production is “ethanol production was also better”.

What about the xylose utilization [2] of the same compound?
The xylose utilization was “More xylose was utilized”.

What about the OD600 ([2]; after 32 hours, total sugar about 160 g/L) of the same compound?
The OD600 was 7.88.

What about the xylitol ([3]; 10-200 mM sorbitol, any of the samples) of the same compound?
Its xylitol is “No xylitol was detected”.

What about the OD600 ([3]; after 24 hours, 10 mM sorbitol, 110 g/L glucose, 90 g/L xylose) of the same compound?
Its OD600 is 7.74.

And the OD600 ([3]; after 24 hours, 20 mM sorbitol)?
Its OD600 is 7.86.

What about the OD600 ([3]; after 24 hours, 50 mM sorbitol) of the same compound?
The OD600 was 8.04.

What about the OD600 ([3]; after 24 hours, 100 mM sorbitol) of the same compound?
Its OD600 is 7.82.

And the OD600 ([3]; after 24 hours, 200 mM sorbitol)?
The OD600 was 7.12.

And the OD600 ([3]; after 48 hours, 10 mM sorbitol)?
The OD600 was 8.30.

And the OD600 ([3]; after 48 hours, 20 mM sorbitol)?
Its OD600 is 8.26.

What about the OD600 ([3]; after 48 hours, 50 mM sorbitol) of the same compound?
The OD600 was 8.84.

What about the OD600 ([3]; after 48 hours, 100 mM sorbitol) of the same compound?
The OD600 was 8.12.

And the OD600 ([3]; after 48 hours, 200 mM sorbitol)?
The OD600 was 7.72.
